# Measured values reported in publication PMC10072326, “Promising anticancer agents based on 8-hydroxyquinoline hydrazone copper(II) complexes” (Frontiers in Chemistry, 2023).
# Columns and labels:
# A-549 cells [1] = assay: ROS activation via dihydroethidium staining, flow cytometry; format: cell-based
# From the text: (§1) Since reactive oxygen species appeared to be involved in the nicking activity of the complexes (Supplementary Figure S24), we investigated whether there was an increase in ROS formation in cells upon drug treatment. Dihydroethidium (DHE) is a reduced form of ethidium, after oxidation with superoxide (ROS), it is converted into 2-hydroxy ethidium, which is a chemical that emits red fluorescence and intercalates DNA. […] Similar results were obtained using A-549 cells, but with much milder induction of ROS except for 8, which remained high (Supplementary Figure S26).
# (§2) 5 × 10^4 number of A-375 and A-549 cells were seeded on 12-well plates, and the next day cells were treated with either copper complexes (calculated IC70 values) or cisplatin (15 μM). Following 48 h of treatment, cells were trypsinized, centrifuged and resuspended in PBS solution supplemented with 1% fetal bovine serum (FBS) (10^6 cells/mL).
# (§3) Oxidative stress levels were assessed by Muse Oxidative Stress Kit (Luminex, MCH100111) using the same protocol as previously described (21).
# A-375 cells [2] = assay: as above; format: cell-based; details: 48 h
# From the text: as §1, §2, §3
# A-375 cells [3] = assay: γH2AX staining for DNA double-strand breaks; format: cell-based
# Description: Indeed, we examined whether DNA nicks induced by the complexes on pure plasmid DNA would reflect in cell culture as increased DNA break formation. To test this, A-375 cells were stained using γH2AX, which is a common marker for DSBs (Figure 7B). […] For complex 1 the opposite effect was observed and despite its lower ability to induce ROS formation, the DSB were the highest among the group.
# as §2
# The Muse ɣH2A.X Activation Dual Detection Kit (Luminex, MCH200101) protocols were followed with minor changes. 1 × 10^5 cells were mixed with ice-cold 1X Fixation Buffer at the same volume for 5 min. Cells were centrifuged (600 g, 5 min), and the pellet was suspended with 100 μL of ice-cold 1X Permeabilization Buffer (10 min, on ice), and centrifuged again. The cell pellet was resuspended with 50 μL of antibody mixture of (20X) Anti-phospho-Histone H2A.X (Ser139), Alexa Fluor 555 and (20X) Anti-H2A.X, PECy5 antibodies. Following 30 min of antibody staining, cells were centrifuged and resuspended with 1X Assay Buffer. DNA breaks were analysed with Muse Cell Analyzer (Merck Millipore).
# A-375 cells [4] = assay: Apoptosis by Annexin V/7-AAD and Caspase 3/7 flow cytometry; format: cell-based; details: 48 h, Annexin-V and caspase 3/7
# Description: To determine the mode of cell death, A-375 cells were incubated with the Cu complexes and cisplatin for 48 h and, induction of apoptosis was evaluated using both Annexin-V staining and activation of caspase 3/7 in response to drug treatment. While Annexin-V staining relies on the loss of plasma membrane asymmetry, caspases 3 and 7 are critical proteases, which are responsible for the cleavage of many cellular proteins. […] Similar results were obtained in A-549 cells (Supplementary Figure S28).
# as §2
# Annexin V & Dead Cell Kit (Luminex, MCH100105) protocols were followed for Annexin V activation. Briefly, 1 × 10^5 cells were stained with Annexin V and 7-AAD solution in a 1:1 ratio and incubated at room temperature for 20 min. The apoptotic cell population was evaluated with Muse Cell Analyzer (Merck Millipore).
# Caspase-3/7 Kit (Luminex, MCH100108) protocols were followed for Caspase 3/7 staining. 2 × 10^5 cells were stained with 5 μL of Caspase 3/7 antibody (1:8 dilution in PBS) and incubated at room temperature for 30 min. Then, the cells were stained with 100 μL of 7-AAD antibody mixture (1:75 dilution with 1 × Assay Buffer) for 5 min. Caspase 3/7 and 7-AAD positivity were assessed with Muse Cell Analyzer (Merck Millipore).
# A-549 cells [5] = assay: Cytotoxicity with ROS scavenger NAC (SRB); format: cell-based; details: 10 mM NAC pre-treatment 2 h, co-treatment 72 h
# From the text: (§4) Additionally, to assess whether the ROS induction contributed to the cytotoxicity triggered by these complexes, we used a ROS scavenger, N-acetyl-cysteine (NAC), in combination with 1, 3, 5 or 8. […] Indeed, it is also possible that the cytotoxicity induced by 5 is not by ROS, despite the induction observed in Figure 7A.
# (§5) Figure S27- Protective mechanism of NAC against Cu(II) complexes. Addition of NAC can protect cells from the cytotoxic effects of the Cu(II) complexes A-375 (A) and A-549 (B) cells were pre-treated with 10 mM of ROS scavenger N-acetylcysteine (NAC) for 2 h, then co-treated with freshly prepared Cu(II) complexes (1, 3, 5 and 8) for 72 h. Cell viability was measured via SRB assay (2 biological replicates, each done in duplicate). The error bars represent standard error of the mean. Student t-test was used for statistical analysis, *p<0.05, **p<0.01
# A-375 cells [6] = assay: Cytotoxicity with ROS scavenger NAC (SRB); format: cell-based; details: 10 mM NAC pre-treatment 2 h, co-treatment 72 h
# From the text: as §4, §5
# S. aureus MRSA 272123 = assay: MIC determination; format: cell-based, Staphylococcus aureus; details: 18 h
Structure (SMILES),"ROS induction, in words (A-549 cells [1])",ROS positivity (A-375 cells [2]),"DSB induction (γH2AX), in words (A-375 cells [3])",DNA breaks (γH2AX) (A-375 cells [3]; 48 h),"induction of apoptosis, in words (A-375 cells [4])",effect of NAC on cytotoxicity (A-549 cells [5]),effect of NAC on cytotoxicity (A-375 cells [6]),MIC (S. aureus MRSA 272123)
"COc1ccc(C([O-])=NN=Cc2ccc3cccc([O-])c3n2)cc1.[Cu+2] [Complex 5, [Cu(L^5)]3]",milder ROS induction,~80%,highest levels of DSB induction,~80%,triggered apoptosis only mildly,,,
"[Cu+2].[O-]C(=NN=Cc1ccc2cccc([O-])c2n1)c1ccc(F)cc1 [Complex 3, [Cu(L^3)]3]",,60%,,,performed well,significantly reduced,significantly reduced,
"CC(=O)[O-].O=C(NN=Cc1ccc2cccc([O-])c2n1)c1ccccc1.[Cu+2] [Complex 1, [Cu(HL^1)(AcO)]]",,,highest levels of DSB induction,,,significantly reduced,significantly reduced,50 µM
